# Measurements: publication PMC9138991, “Effect of Trimethine Cyanine Dye- and Folate-Conjugation on the In Vitro Biological Activity of Proapoptotic Peptides” (Biomolecules, 2022)
# Where a SMILES comes first, the peptide text is derived from it. [ ]: non-standard residue; d: D form. The star is where a group is joined. X1 = CN1/C(=C\C=C\C2=[N+](CCCCCC(=O)*)c3ccccc3C2(C)C)C(C)(C)c2ccccc21; Cha = N[C@@H](CC1CCCCC1)C(=O)O; dCha = N[C@H](CC1CCCCC1)C(=O)O
# What was measured:
# Format in all cases: cell-based, human
# [1] = tested on: mitochondria of SK-OV-3 cells; assay: Confocal microscopy, colocalisation with MitoTracker Green FM, SK-OV-3 cells; settings: 10 µM conjugate, 10 min at 37 °C; for Pearson's correlation coefficient of MitoTracker Green and Cy3 fluorescence: imaged at 20X; for Pearson's correlation coefficient of MitoTracker Green FM and Cy3 fluorescence: imaged at 63X
# Protocol: (§1) SK-OV-3 and MCF7 were seeded at a density of 1 × 10^6 cells per well in glass-bottom culture dishes and grown at 37 °C in a 5% CO2 atmosphere in medium supplemented with 10% (v/v) FBS for 24 h. Cells were washed once with the RPMI-1640 medium supplemented with 10% (v/v) FBS before staining. Compounds 1, 5–10 were diluted into the RPMI-1640 medium supplemented with 10% (v/v) FBS to 10 μM and then added to the culture dishes, respectively. After 10-min incubation at 37 °C, cells were washed with RPMI-1640 medium supplemented with 10% (v/v) FBS. Cells were then treated with 50 nM MitoTracker Green FM and 10 μg/mL Hoechst33258 pre-formulated with RPMI-1640 medium supplemented with 10% (v/v) FBS and then incubated for another 10 min at 37 °C before analysis on ZEISS LSM 900 with Airyscan 2. The results were analyzed using Image J software (Figure 3 and Figures S4–S7 in Supplementary Materials).
# (§2) Figure 3 Confocal microscopy images of SK-OV-3 and MCF7 cells treated with Cy3-containing conjugates. Cells were treated with 10 µM of the indicated conjugate for 10 min at 37 °C, washed, stained with 50 nM MitoTracker Green FM and 10 μg/mL Hoechst33258 for 10 min at 37 °C, washed, and imaged at 63X. Pearson’s correlation coefficients of MitoTracker Green FM and Cy3 fluorescence for compounds 1, 5, 6, 7, 8, 9, and 10 in SK-OV-3 and MCF cells are 0.75/0.64, 0.73/0.81, 0.91/0.61, 0.78/0.63, 0.85/0.69, 0.43/0.82, and 0.78/0.60, respectively. Excitation wavelengths for Hoechst33258, MitoTracker Green FM and Cy3 were set as 405, 488, and 561 nm, respectively. Scale bars denote 25 μm. Additional images, including the results of Hoechst33258 staining, are shown in Figure S4 (SK-OV-3 at 20X), Figure S5 (SK-OV-3 at 63X), Figure S6 (MCF7 at 20X) and Figure S7 (MCF7 at 63X), Supplementary Materials.
# SK-OV-3 cells = assay: Cell viability assay (CellTiter-Blue), SK-OV-3 cells; settings: 2 × 10^4 cells per well, medium + 10% FBS, 1% DMSO, 24 h at 37 °C, then CellTiter-Blue 4 h, three biological replicates fitted in Origin, standard error in brackets
# Protocol: (§3) KB and MCF7 cells were kindly gifted by Prof. Arwyn T. Jones (Cardiff University), HEK293 cells were purchased from Public Health England, and SK-OV-3 cells were purchased from National Collection of Authenticated Cell Cultures (https://cell-bank.org.cn/). Cells were routinely tested for mycoplasma infection. KB and SK-OV-3 cells were maintained in T75 flasks at 37 °C in a 5% CO2 atmosphere in folic acid-depleted Roswell Park Memorial Institute (RPMI)-1640 medium supplemented with 10% (v/v) fetal bovine serum (FBS). MCF7 and HEK293 cells were maintained in T75 flasks at 37 °C in a 5% CO2 atmosphere in Dulbecco’s Modified Eagle’s medium (DMEM) supplemented with 10% (v/v) FBS. Cells were maintained at a sub-confluent monolayer and split at 80–85% confluency. For splitting, cells were washed with PBS, trypsinized in 1 mL of trypsin, and 200 µL of the 1000 µL trypsin cell suspension was re-suspended in 12 mL fresh DMEM containing 10% (v/v) FBS in a new T75 flask. KB and SK-OV-3 cells were used for biological experiments after being maintained for at least 10 days in folic acid-depleted RPMI-1640 medium.
# (§4) SK-OV-3, MCF7, and HEK293 cells were seeded at a density of 2 × 10^4 cells per well in a Nunc™ MicroWell™ 96-well plate and grown at 37 °C in a 5% CO2 atmosphere in DMEM supplemented with 10% (v/v) FBS for 24 h. KB cells were seeded at a density of 7 × 10^3 cells per well in a 96-well plate and grown at 37 °C in a 5% CO2 atmosphere in folic acid-depleted RPMI-1640 medium supplemented with 10% (v/v) FBS for 24 h. Stock solutions of compounds 2–6 and 11–13 were obtained by dissolving the compounds in sterile deionized water. Compounds 1, and 7–10 were dissolved in pure DMSO. The stock solutions were diluted into the proper medium (according to the cell line tested) supplemented with 10% FBS to the appropriate concentration, and cells in each well were incubated with 100 µL of the solution. The solutions in each well were then adjusted to a concentration of 1% (v/v) DMSO. After 24 h at 37 °C, 20 µL of CellTiter-Blue™ was added to each well. The plate was incubated for another 4 h at 37 °C before analysis on a Perkin Elmer Victor X plate reader (excitation 531 nm; emission 595 nm). Each data point was calculated from a minimum of nine values resulting from three biological replicates (i.e., cells split from three different passages); each biological replicate is calculated from three technical replicates (i.e., cells split from the same passage). Value from media-only with CellTiter-Blue™ was set at 0% viability. This value was then subtracted from the values from cell-only (i.e., non-treated) wells with CellTiter-Blue™ in each biological replicate and set as 100% viability. For treatments of Cy3-containing compounds, blanks were generated with cell-free wells containing the compounds incubated for 24 h before addition of CellTiter-Blue™. The fluorescent reading for these wells was deducted from the treatment readings. Dose-response fitting curves were generated using Origin, version 2019b, OriginLab Corporation, Northampton, MA, USA (Figures S21–S24, Supplementary Materials).
# (§5) Comparison of cytotoxicity fitting curves was achieved by applying the extra sum-of-squares F test, performed using GraphPad Prism version 9 for Windows, GraphPad Software, La Jolla, California, USA (https://www.graphpad.com/). […] Statistical analysis on the flow cytometry data was achieved by applying the unpaired two-tailed t-test test, performed using GraphPad Prism version 9 for Windows, GraphPad Software, La Jolla California USA, USA (https://www.graphpad.com/).
# (§6) Cytotoxicity of 1–13 was evaluated using the CellTiter-Blue assay on KB, MCF7, SK-OV-3, and HEK293 cells. KB cells are derived from human cervical cancer, while SK-OV-3 cells are derived from human ovarian cancer. […] This feature is of particular relevance in anticancer applications, as it can be exploited for selective targeting and delivery. […]
# HEK293 cells = assay: Cell viability assay (CellTiter-Blue), HEK293 cells; settings: 2 × 10^4 cells per well, DMEM + 10% FBS, 1% DMSO, 24 h at 37 °C, then CellTiter-Blue 4 h, three biological replicates fitted in Origin, standard error in brackets
# Protocol: as §3, §4, §5, §6
# MCF7 cells = assay: Cell viability assay (CellTiter-Blue), MCF7 cells; settings: MCF7 cells, 2 × 10^4 cells per well, DMEM + 10% FBS, 1% DMSO, 24 h at 37 °C, then CellTiter-Blue 4 h; three biological replicates fitted in Origin, standard error in brackets
# Protocol: as §3, §4, §5, §6
# KB cells = assay: Cell viability assay (CellTiter-Blue), KB cells; settings: 7 × 10^3 cells per well, folic acid-depleted RPMI-1640 + 10% FBS, 1% DMSO, 24 h at 37 °C, then CellTiter-Blue 4 h, three biological replicates fitted in Origin, standard error in brackets
# Protocol: as §3, §4, §5, §6
# [2] = tested on: mitochondria of MCF7 cells; assay: Confocal microscopy, colocalisation with MitoTracker Green FM, MCF7 cells; settings: 10 µM conjugate, 10 min at 37 °C; for Pearson's correlation coefficient of MitoTracker Green and Cy3 fluorescence: imaged at 20X; for Pearson's correlation coefficient of MitoTracker Green FM and Cy3 fluorescence: imaged at 63X
# Protocol: as §1, §2
SMILES,Pearson's correlation coefficient of MitoTracker Green and Cy3 fluorescence [1],Pearson's correlation coefficient of MitoTracker Green FM and Cy3 fluorescence [1],EC50 (SK-OV-3 cells) [µM],EC50 (HEK293 cells) [µM],EC50 (MCF7 cells) [µM],EC50 (KB cells) [µM],Pearson's correlation coefficient of MitoTracker Green and Cy3 fluorescence [2],Pearson's correlation coefficient of MitoTracker Green FM and Cy3 fluorescence [2]
CC(C)C[C@H](NC(=O)[C@H](CCCCN)NC(=O)CCCCC[N+]1=C(/C=C/C=C2\N(C)c3ccccc3C2(C)C)C(C)(C)c2ccccc21)C(=O)N[C@@H](C)C(=O)N[C@@H](CCCCN)C(=O)N[C@@H](CC(C)C)C(=O)N[C@@H](C)C(=O)N[C@@H](CCCCN)C(=O)N[C@@H](CCCCN)C(=O)N[C@@H](CC(C)C)C(=O)N[C@@H](C)C(=O)N[C@@H](CCCCN)C(=O)N[C@@H](CC(C)C)C(=O)N[C@@H](C)C(=O)N[C@@H](CCCCN)C(N)=O [Compound 5],0.76,0.73,11,44.3,7.37,6.7,0.80,0.81
CC(C)C[C@@H](NC(=O)[C@@H](CCCCN)NC(=O)CCCCC[N+]1=C(/C=C/C=C2\N(C)c3ccccc3C2(C)C)C(C)(C)c2ccccc21)C(=O)N[C@H](C)C(=O)N[C@H](CCCCN)C(=O)N[C@H](CC(C)C)C(=O)N[C@H](C)C(=O)N[C@H](CCCCN)C(=O)N[C@H](CCCCN)C(=O)N[C@H](CC(C)C)C(=O)N[C@H](C)C(=O)N[C@H](CCCCN)C(=O)N[C@H](CC(C)C)C(=O)N[C@H](C)C(=O)N[C@H](CCCCN)C(N)=O [Compound 6],0.74,0.91,6.39,5.3,5.7,3.5,0.81,0.61
C[C@@H](NC(=O)[C@H](CC1CCCCC1)NC(=O)[C@@H](CCCCN)NC(=O)[C@@H](C)NC(=O)[C@@H](CC1CCCCC1)NC(=O)[C@@H](CCCCN)NC(=O)CCCCC[N+]1=C(/C=C/C=C2\N(C)c3ccccc3C2(C)C)C(C)(C)c2ccccc21)C(=O)N[C@H](CCCCN)C(=O)N[C@H](CCCCN)C(=O)N[C@@H](CC1CCCCC1)C(=O)N[C@H](C)C(=O)N[C@H](CCCCN)C(=O)N[C@H](CC1CCCCC1)C(=O)N[C@H](C)C(=O)N[C@H](CCCCN)C(N)=O [Compound 7] (X1-[dK][dCha][dA][dK][Cha][dA][dK][dK][Cha][dA][dK][dCha][dA][dK]-NH2),0.74,0.78,23,8.2,11.6,5.5,0.52,0.63
CC(C)C[C@H](NC(=O)[C@H](CCCCN)NC(=O)[C@H](C)NC(=O)[C@H](CC(C)C)NC(=O)[C@H](CCCCN)NC(=O)[C@H](CCCCN)NC(=O)[C@H](C)NC(=O)[C@H](CC(C)C)NC(=O)[C@H](CCCCN)NC(=O)[C@H](C)NC(=O)[C@H](CC(C)C)NC(=O)[C@H](CCCCN)NC(=O)[C@H](CCCCNC(=O)[C@H](CCC(=O)O)NC(=O)c1ccc(NCc2cnc3nc(N)nc(O)c3n2)cc1)NC(=O)CCCCC[N+]1=C(/C=C/C=C2\N(C)c3ccccc3C2(C)C)C(C)(C)c2ccccc21)C(=O)N[C@@H](C)C(=O)N[C@@H](CCCCN)C(N)=O [Compound 8],0.53,0.85,8.8,35.6,49.4,38.8,0.60,0.69
CC(C)C[C@@H](NC(=O)[C@@H](CCCCN)NC(=O)[C@H](CCCCNC(=O)[C@H](CCC(=O)O)NC(=O)c1ccc(NCc2cnc3nc(N)nc(O)c3n2)cc1)NC(=O)CCCCC[N+]1=C(/C=C/C=C2\N(C)c3ccccc3C2(C)C)C(C)(C)c2ccccc21)C(=O)N[C@H](C)C(=O)N[C@H](CCCCN)C(=O)N[C@H](CC(C)C)C(=O)N[C@H](C)C(=O)N[C@H](CCCCN)C(=O)N[C@H](CCCCN)C(=O)N[C@H](CC(C)C)C(=O)N[C@H](C)C(=O)N[C@H](CCCCN)C(=O)N[C@H](CC(C)C)C(=O)N[C@H](C)C(=O)N[C@H](CCCCN)C(N)=O [Compound 9],0.52,0.43,8,6.9,13.2,22.4,0.61,0.82
